Laboratory results reported in patent publication US20100306877A1, “FLAVONOID GLUCOSYLTRANSFERASE AND USE OF SAME” (International Flower Development Proprietary Limited, priority 2006, published 2010).

Test system: protein encoded by cDNA contained in pSPB1123 (flavonol 3GT)
Assay: Glucosyltransferase activity of the protein encoded by pSPB1123 cDNA expressed in yeast, product measured by HPLC
Format: biochemical, rose
Conditions: flavonol substrates compared
Excerpt: In order to analyze the activity of a protein encoded by cDNA contained in pSPB1123, this cDNA was expressed in yeast cells. Yeast expression vector pYE22m (Plant Cell Physiol. (1996) 37, 711-716) was used to express the cDNA in yeast. A fragment obtained by digested pSPB1123 cDNA with EcoRI and KpnI was inserted into an EcoRI and KpnI recognition sequence of pYE22m to obtain a yeast expression vector. This vector was then inserted into yeast strain G1315 followed by measurement of activity of the protein encoded by pSPB1123 according to the method described on pp. 114-118 of Shinseibutsugaku Jikken (New Biological Experiment) Manual 3 (Kagaku-Dojin Publishing Co., Inc.). The method for measuring activity and the conditions for measuring a product by HPLC were the same as the method and the like described in Plant Physiology (2003) 132, 1652-1663. Furthermore, anthocyanin (cyanidin, pelargonidin), cyanidin 3-glucoside (cyanidin 3G), cyanidin 3,5-diglucoside (cyanidin 3,5G), flavonol (quercetin, kaempferol) and flavone (apigenin, luteolin) were used as substrates for measurement of the activity.

SMILES | substrate preference
O=c1c(O)c(-c2ccc(O)cc2)oc2cc(O)cc(O)c12 [kaempferol] | prefer quercetin to kaempferol
O=c1c(O)c(-c2ccc(O)c(O)c2)oc2cc(O)cc(O)c12 [quercetin] | prefer quercetin to kaempferol
